Test results published in article PMC11579541, “In vitro, in vivo, and in silico approaches for evaluating the preclinical DMPK profiles of ammoxetine, a novel chiral serotonin and norepinephrine reuptake inhibitor” (Frontiers in Pharmacology, 2024).
Read-outs that look alike come from different tables or passages of the source.

Assays:
PK study in rats = assay type: in vivo, SD rats; conditions: rat, plasma; for CL/F: read-out: CLz/F (converted); for MRT last: read-out: MRT(0-t); for MRT inf: read-out: MRT(0-∞); for Vd/F: read-out: Vz/F; for half-life: read-out: t1/2z (converted)
Method: For the PK studies in rats and dogs, a total of 18 SD rats and 15 male beagle dogs were randomly divided into three groups, with six rats or five dogs per group, respectively. Prior to the experiments, all animals underwent a 12-h fasting period, while having free access to water. The animals were administered single oral doses of ammoxetine in three different dose levels: 8 mg/kg, 20 mg/kg, and 50 mg/kg for rats, and 2 mg/kg, 5 mg/kg, and 12.5 mg/kg for dogs, representing low, medium, and high doses. Serial blood samples were collected from the rats at 0, 2, 5, 15, and 30 min, as well as 1, 2, 4, 6, 8, 12, and 24 h post-dosing. For the dogs, blood samples were collected at 0, 5, 15, 30, and 45 min, as well as 1, 2, 4, 6, 8, 12, and 24 h post-dosing. Approximately 0.3 mL of blood was collected from the rats, while 2 mL of blood was collected from the dogs. The blood samples were collected into heparinized tubes. Following centrifugation, plasma samples were obtained and stored at −30°C until further analysis.
To determine the concentration of ammoxetine, 100 μL of L-phencynonate (IS, 50 ng/mL) and 300 μL of methanol were added to 100 μL of plasma samples from rats or dogs. After thorough vortexing, the mixture was centrifuged at 13,800×g for 10 min. The supernatants were then subjected to analysis using LC-MS-MS methods. PK parameters were calculated using DAS (Drug And Statistics for Windows) version 2.0, developed by the Shanghai University of Traditional Chinese Medicine, Shanghai, China. The F was determined by comparing the plasma area under the concentration-time curve (AUC) values after oral (p.o.) and intravenous (i.v.) administration of ammoxetine. F was calculated using the formula: F=AUCp.o./AUCi.v.×100% . Statistical analyses were performed using OriginPro 8.6 software. Paired sample or student’s t-test, as well as one-way ANOVA, were employed to compare the means of two or three groups, with a significance level set at p < 0.05.

[1] = Tissue distribution study in rats; assay type: in vivo; conditions: 20 mg/kg oral; for Tmax: read-out: time of peak concentration in tissue; for Kp: po, 20 mg/kg, read-out: AUC(0→t),tissue/AUC(0→t),blood
Method: A total of 24 rats were divided equally into four groups, with each group receiving a single oral gavage dose of 20 mg/kg of ammoxetine. Based on the rat PK analysis results for the 20 mg/kg dose, specific time points were selected for sampling, including before, at, and after the peak of ammoxetine plasma concentration (i.e., 0.25, 2, 6, and 24 h, respectively). At each designated time point after drug administration, the rats were euthanized, and approximately 1 mL of blood samples were collected into heparinized tubes. The heart, liver, spleen, lung, kidney, brain, intestine, stomach, testis, fat, and muscle tissues were rapidly removed after washing out the blood with ice-cold saline. The blood samples were then centrifuged at 6,000 r/min for 15 min to obtain plasma. The collected tissue samples were weighed and homogenized in distilled water to create a 10% homogenate. For further analysis, 100 μL of plasma or tissue homogenate samples were mixed with 300 μL of methanol and 100 μL of L-phencynonate (IS, 50 ng/mL). The mixture was vortexed for 1 min and then centrifuged at 13,800×g for 10 min. The resulting supernatants were used for LC-MS-MS analysis. Using the trapezoidal method, the tissue-to-blood AUC ratio ( AUC0→t,tissue/AUC0→t,blood ) was calculated based on the obtained AUC values. This ratio allowed for the comparison of differential tissue distribution of ammoxetine in rats.

[2] = set-up: method as in Xue et al., 2017; conditions: citric acid/phosphate buffer (pH 2); ref Xue et al., 2017; cited from earlier work

- AUC(0-inf) (PK study in rats; SD, 8 mg/kg single oral dose): 1370 ng·h/mL
- AUC(0-t) (PK study in rats; SD, 8 mg/kg single oral dose): 1370 ng·h/mL
- Cmax (PK study in rats; SD, 8 mg/kg single oral dose): 287 ± 50.8 ng/mL
- CL/F (PK study in rats; SD, 8 mg/kg single oral dose): 100 mL/min/kg
- MRT last (PK study in rats; SD, 8 mg/kg single oral dose): 4.38 ± 0.47 h
- MRT inf (PK study in rats; SD, 8 mg/kg single oral dose): 4.49 ± 0.44 h
- Tmax (PK study in rats; SD, 8 mg/kg single oral dose, read-out: Tmax): 0.75 ± 0.27 h
- Vd/F (PK study in rats; SD, 8 mg/kg single oral dose): 24.4 ± 4.48 L/kg
- half-life (PK study in rats; SD, 8 mg/kg single oral dose): 2.87 ± 0.59 h
- AUC(0-inf) (PK study in rats; SD, 20 mg/kg single oral dose): 3400 ng·h/mL
- AUC(0-t) (PK study in rats; SD, 20 mg/kg single oral dose): 3200 ng·h/mL
- Cmax (PK study in rats; SD, 20 mg/kg single oral dose): 400 ± 246 ng/mL
- CL/F (PK study in rats; SD, 20 mg/kg single oral dose): 108 mL/min/kg
- MRT last (PK study in rats; SD, 20 mg/kg single oral dose): 6.73 ± 1.25 h
- MRT inf (PK study in rats; SD, 20 mg/kg single oral dose): 8.57 ± 3.58 h
- Tmax (PK study in rats; SD, 20 mg/kg single oral dose, read-out: Tmax): 1.58 ± 1.39 h
- Vd/F (PK study in rats; SD, 20 mg/kg single oral dose): 53.5 ± 29 L/kg
- half-life (PK study in rats; SD, 20 mg/kg single oral dose): 5.61 ± 2.59 h
- AUC(0-inf) (PK study in rats; SD, 50 mg/kg single oral dose): 12900 ng·h/mL
- AUC(0-t) (PK study in rats; SD, 50 mg/kg single oral dose): 11000 ng·h/mL
- Cmax (PK study in rats; SD, 50 mg/kg single oral dose): 987 ± 362 ng/mL
- CL/F (PK study in rats; SD, 50 mg/kg single oral dose): 72.3 mL/min/kg
- MRT last (PK study in rats; SD, 50 mg/kg single oral dose): 7.74 ± 0.52 h
- MRT inf (PK study in rats; SD, 50 mg/kg single oral dose): 11.8 ± 7.34 h
- Tmax (PK study in rats; SD, 50 mg/kg single oral dose, read-out: Tmax): 3.83 ± 2.7 h
- Vd/F (PK study in rats; SD, 50 mg/kg single oral dose): 40.3 ± 16.4 L/kg
- half-life (PK study in rats; SD, 50 mg/kg single oral dose): 7.51 ± 5.7 h
- Tmax (PK study in rats; Sprague-Dawley (SD), oral 8, 20 and 50 mg/kg, read-out: Tmax values, range): 0.75 to 3.83 h
- Plasma exposure as share of total systemic exposure (AUC0→t,blood/AUC0→t,total) [1]: approximately 0.186%
- AUC(0→t) ([1]; brain): 60,541.26 ± 19,438.07 ng/g·h
- AUC(0→t) ([1]; fat): 38,592.32 ± 24,498.69 ng/g·h
- AUC(0→t) ([1]; heart): 44,743.11 ± 11,086.06 ng/g·h
- AUC(0→t) ([1]; intestine): 190,710.5 ± 52,982.23 ng/g·h
- AUC(0→t) ([1]; kidney): 98,000.01 ± 25,400.16 ng/g·h
- AUC(0→t) ([1]; liver): 208,081.20 ± 64,872.68 ng/g·h
- AUC(0→t) ([1]; lung): 393,670.80 ± 31,407.40 ng/g·h
- AUC(0→t) ([1]; muscle): 24,154.50 ± 6,583.59 ng/g·h
- AUC(0→t) ([1]; spleen): 117,673.30 ± 31,479.36 ng/g·h
- AUC(0→t) ([1]; stomach): 118,279.40 ± 37,565.21 ng/g·h
- AUC(0→t) ([1]; testis): 69,347.84 ± 13,459.91 ng/g·h
- Tmax ([1]; rat, heart, spleen, lung, kidney, brain, fat and muscle): 2 h
- Tmax ([1]; rat, testis): 6 h
- Kp ([1]; rat, brain, brain): ~23.3
- Kp ([1]; rat, fat, fat): 14.2 ± 7.84
- Kp ([1]; rat, heart, heart): 17.1 ± 3.3
- Kp ([1]; rat, intestine, intestine): 75.6 ± 28.2
- Kp ([1]; rat, kidney, kidney): 37.7 ± 8.18
- Kp ([1]; rat, liver, liver): 81.4 ± 26.8
- Kp ([1]; rat, lung, lung): 155 ± 34.7
- Kp ([1]; rat, muscle, muscle): 9.31 ± 2.29
- AUC(0-t) ([1]; rat, plasma, blood): 2620 ng·h/mL
- Kp ([1]; rat, spleen, spleen): 46 ± 14.2
- Kp ([1]; rat, stomach, stomach): 48.8 ± 27.6
- Kp ([1]; rat, testis, testis): 27.3 ± 8.12
SMILES: CNCC[C@H](Oc1cccc2c1OCO2)c1cccs1 [ammoxetine]
- stability in buffer [2]: instability
